The text below walks through data of PubChem BioAssay (NCI).

Holding throughout (assay): NCI tumour cell line growth inhibition, 48 h
Test [1] has as its system EKVX NSCLC.
Test [2] deals with HCT-15 colon.
In test [3] the test system is HT29 colon.
For test [4], the system named is NCI-H23 lung.
Test [5] concerns RXF 393 renal.
Test [6] deals with SF-539 CNS.
Test [7] has as its system SK-MEL-5 melanoma.
Test [8] relates to HOP-92 NSCLC.
The test system of test [9] is SK-OV-3 ovarian.

Structures are written as SMILES.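 Five compound concentrations were applied to cells in 96-well plates for 48 hours; endpoints were derived by simple linear interpolation of the resulting dose-response curve. GI50 marks 50% less growth. The concentration for full growth arrest is given as TGI.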 Where only a bound is given, the exact number is not on record here.

On to `COC(=O)CC1NC(=O)C1C1(C)OCCO1` (stereo not drawn), for which the TGI in [1], in test [2], in test [3], in [4], in test [5] and in [6] was above 100 µM each time. In [7], this molecule came in with a TGI above 100 µM.
In the case of `C/C=C(\C)c1cc(O)c(C)c2c1Oc1cc(O)c(Cl)c(C)c1C(=O)O2`, the TGI in test [1] amounted to 61.2 µM; in test [3], 34.7 µM; in test [4], 38.6 µM; in test [5], 34.1 µM; in test [6] it was 48.2 µM; in [7] it was 26.9 µM.
Regarding `COc1cc(-c2cc(-c3cc([N+](=O)[O-])c(/C=N/NC(=O)c4ccncc4)o3)ccc2OC)ccc1C`, the TGI in test [1], in [8], in test [3], in [4], in test [5] and in test [6] was above 100 µM throughout. The TGI in test [9] was above 100 µM.
For `O=C([CH-]C(=O)c1ccccc1)c1ccccc1.O=C([CH-]C(=O)c1ccccc1)c1ccccc1.[OH-].[OH-].[Ti+4]`, the GI50 in test [1] was 94.9 µM; in test [2], above 100 µM; in test [3] it was above 100 µM; in test [5], 6.85 µM; in test [6], 29.7 µM; in test [7] it was 31.2 µM. Further, the GI50 in test [9] was 75.6 µM. Moreover, the TGI in [1] is above 100 µM; in test [2] it was above 100 µM; in test [3], above 100 µM; in test [5] it was 25.9 µM; in [6], above 100 µM; in test [7], above 100 µM. Besides, the TGI in [9] was above 100 µM.
`CCCCCCN(N)C(=O)CC#N`: the TGI in [1] is above 100 µM; in test [2], above 100 µM; in [8], above 100 µM; in [3], above 100 µM; in [4], above 100 µM; in test [5], 94.8 µM. In addition, the TGI in test [6], in test [7] and in test [9] was above 100 µM in each case.
With `Fc1cccc(C2SCc3nc4ccccc4n32)c1F` (stereo not drawn), the TGI in test [1] was above 100 µM; in test [2], above 100 µM; in test [8], 85 µM; in [3], above 100 µM; in test [4] it was above 100 µM; in test [5], above 100 µM. In addition, the values for the TGI in test [6], in test [7] and in [9] were above 100 µM, 53.2 µM and above 100 µM, respectively.
On to `COCCOCOc1ccc(OCOCCOC)c2c1C(=O)c1ccccc1C2=O`, for which the TGI in test [1], in test [2], in test [8], in test [3], in [4] and in [5] was above 100 µM in each case. For the same molecule, the TGI in test [6], in test [7] and in test [9] was above 100 µM throughout.
With `Cc1ccc(S(=O)OC2C3CC4CC(C3)CC2C4)cc1` (stereo not drawn), the TGI in test [1], in [2], in test [8], in [3], in [4] and in test [5] was above 100 µM in each case. The TGI in test [6], in test [7] and in [9] was above 100 µM throughout.
With `O=P1(Oc2ccccc2)C(c2ccccc2)C(c2ccccc2)=NN1c1ccccc1` (stereo not drawn), the TGI in [1] was above 100 µM; in test [2] it was 44.7 µM; in [3], 33 µM; in test [4], 51.9 µM; in test [5], 40.7 µM; in test [6], 35.9 µM. In test [9], this molecule registered a TGI of 54.4 µM.
As for `O=C(O)/C(Cl)=C(\Cl)C(=O)Nc1ccc(Cl)c(Cl)c1Cl`, the TGI in test [1] amounted to 37.1 µM; in [2], 34.8 µM; in test [8], 31.1 µM; in test [3], 39.9 µM; in [4] it was 33.2 µM; in test [6], 35.6 µM. Also, the TGI came out at 68.9 µM in test [7] and 35.2 µM in test [9].
For the molecule `Cn1c2ccccc2n2c(=O)c3c(c(C#N)c12)CCCC3`, the TGI in [1], in [2], in test [3], in [4], in test [5] and in test [6] was above 100 µM throughout. For the same molecule, the TGI in test [7] and in test [9] was above 100 µM throughout.
Turning to `CN(C)c1ccc(/C=C2\C=Cc3ccccc32)cc1`, the TGI in test [2] was above 100 µM; in test [8], above 100 µM; in [3] it was above 100 µM; in [4], above 100 µM; in test [5] it was 84.4 µM; in test [6] it was above 100 µM. Further, the TGI in test [7] and in [9] was above 100 µM each time.
Consider `Cc1cc2c(c(C(=O)O)c1C)-c1cccc(F)c1C2=O`, for which the TGI in test [1], in [2], in test [3], in test [4], in test [5] and in test [7] was above 100 µM throughout. Also, in test [9], the TGI is above 100 µM.
For `CNS(=O)(=O)NNS(=O)(=O)c1ccc(Cl)cc1`, the TGI in test [1], in test [8], in [3], in test [4], in [5] and in test [6] was above 100 µM in each case. In addition, the TGI in test [7] and in test [9] was above 100 µM in each case.
As for `CC1(C)OCC(C(O)C2OC(C)(C)OC2/C=N\O)O1` (stereo not drawn), the TGI in test [1], in test [8], in test [3], in [4], in test [5] and in test [6] was above 100 µM each time. Moreover, the TGI in test [7] and in test [9] was above 100 µM each time.
In the case of `CC1CN1c1c(C(=O)/C=C/c2ccccc2)c(-c2ccccc2)nn(C)c1=O` (stereo not drawn), the TGI in test [1] turned out to be 48.2 µM; in test [2], 27.4 µM; in test [8] it was 46.7 µM; in test [3], 29.4 µM; in [4], 31.8 µM; in [5] it was 41.4 µM. Moreover, the TGI in test [6] was 30.7 µM; in test [7], 29.4 µM; in [9], above 100 µM.
